{"source": "patent US20240373877A1", "about": "“ANIMAL FOOD PRODUCT AND METHOD AND APPARATUS THEREFOR” (priority 2023, published 2024)", "key": {"[1]": {"assay": "Beef cattle feed trial (weight gain, feed efficiency, BUN)", "type": "in vivo, Weanling Angus-X steers"}, "bovine rumen microbes": {"test_system": "bovine rumen microbes", "assay": "Rumen microbial methane production in bovine rumen incubations", "type": "cell-based", "settings": "Yeast 2%, Monensin 10 μM", "procedure": "THYM was also found to have a very pronounced inhibition of methane production by rumen microbes.\nBovine rumen microbes were incubated anaerobically for 24 hours at 39° C. with a silage: corn substrate. Bar A indicates basal control incubation, and bars B-G indicate additions. […] Monensin (Rumensin) was used as a positive inhibitory control. The hop acid content of the THYM samples in incubation bars E & F was 100 and 60 μg/ml for alpha and beta acids respectively, similar to the concentrations of alpha and beta acids, 100 μg/ml, added in bars B and C."}}, "data": [{"smiles": "CC[C@@]1([C@@H]2O[C@@H]([C@H]3O[C@@](O)(CO)[C@H](C)C[C@@H]3C)C[C@@H]2C)CC[C@H]([C@]2(C)CC[C@]3(C[C@H](O)[C@@H](C)[C@@H]([C@@H](C)[C@@H](OC)[C@H](C)C(=O)O)O3)O2)O1", "note": "[Monensin, monensin]", "values": [{"measurement": "Average Daily Gain", "setting": "[1]; 9 weeks, monensin 200 mg/animal or 1% THYM in rations", "result": 1.65, "unit": "kg/day"}, {"measurement": "Gain to Feed Ratio", "setting": "[1]; 9 weeks, monensin 200 mg/animal or 1% THYM in rations, M & T vs C p = 0.07", "result": 0.38, "unit": "kg/kg"}, {"measurement": "blood urea nitrogen (BUN) level", "setting": "[1]; feed trial, FIG. 6", "result": "significantly lower"}, {"measurement": "inhibition at 10 µM", "setting": "bovine rumen microbes; THYM 0.4% (of DM), vs paired control, p < 0.05", "result": 68, "unit": "%"}, {"measurement": "Methane Production, Experiment AVG", "setting": "bovine rumen microbes; THYM 0.4%, N = 3 or 4", "result": 11152, "unit": "ppm"}]}]}
